Measured values from patent publication US6660742B2, “Compositions and methods of the use thereof achiral analogues of CC-1065 and the duocarmycins” (priority 2000, dated 2003).
Values joined by “and” are separate entries in the source; they are usually repeats but may differ in a detail not shown here. Identical values can stand only once. Like-named read-outs stand apart in the source and are kept apart here.

Columns and labels:
[1] = tested on: ACHN; format: cell-based, human
[2] = tested on: MCF7/ADR-RES; assay: NCI screen, MCF7/ADR-RES (Breast Cancer); format: cell-based, human; settings: MCF7/ADR-RES
Protocol: (§1) The compounds of this invention were also tested against the panel of 60 human cancer cell lines at the National Cancer Institute, Bethesda, Md. […] The cytrotoxicity studies were conducted using a 48 hour exposure, and measuring the optical density of sulforhodamide B-derived color.

[3] = tested on: NCI-H322M
[4] = tested on: MDA-MB-231/ATCC; settings: MDA-MB-231/ATCC
[5] = tested on: SR; assay: NCI screen, SR (Leukemia)
Protocol: as §1

[6] = tested on: M14; assay: NCI screen, M14 (Melanoma)
Protocol: as §1

[7] = tested on: MOLT-4; assay: NCI screen, MOLT-4 (Leukemia)
Protocol: as §1

[8] = tested on: U251; assay: NCI screen, U251 (CNS Cancer)
Protocol: as §1

[9] = tested on: CCRF-CEM; assay: NCI screen, CCRF-CEM (Leukemia)
Protocol: as §1

[10] = tested on: HT29; assay: NCI screen, HT29 (Colon Cancer)
Protocol: as §1

[11] = tested on: SNB-19; assay: NCI screen, SNB-19 (CNS Cancer)
Protocol: as §1

[12] = tested on: SNB-75; assay: NCI screen, SNB-75 (CNS Cancer)
Protocol: as §1

[13] = tested on: LOX IMVI; assay: NCI screen, LOX IMVI (Melanoma)
Protocol: (§2) The compounds of this invention were also tested against the panel of 60 human cancer cell lines at the National Cancer Institute, Bethesda, Md. (44). The cytrotoxicity studies were conducted using a 48 hour exposure, and measuring the optical density of sulforhodamide B-derived color.

[14] = tested on: SK-MEL-2; assay: NCI screen, SK-MEL-2 (Melanoma)
Protocol: as §1

[15] = tested on: UACC-257; assay: NCI screen, UACC-257 (Melanoma)
Protocol: as §1

[16] = tested on: UO-31; assay: NCI screen, UO-31 (Renal Cancer)
Protocol: as §1

[17] = tested on: BT-549; assay: NCI screen, BT-549 (Breast Cancer)
Protocol: as §2

[18] = tested on: HCC-2998; assay: NCI screen, HCC-2998 (Colon Cancer)
Protocol: as §1

[19] = tested on: HS 578T; assay: NCI screen, HS 578T (Breast Cancer)
Protocol: as §2

[20] = tested on: OVCAR-3; assay: NCI screen, OVCAR-3 (Ovarian Cancer)
Protocol: as §1

[21] = tested on: OVCAR-8; assay: NCI screen, OVCAR-8 (Ovarian Cancer)
Protocol: as §2

[22] = tested on: NCI-H23; assay: NCI screen, NCI-H23 (Non-Small Cell Lung Cancer)
Protocol: as §1

O=C(Nc1cc(O)ccc1CCCl)c1cc2cc(NC(=O)c3cc4ccccc4o3)ccc2[nH]1 [Compound 1, 4-(2-Chloroethyl)-3-[5-(5-benzofuran-2-carboxamido)indole-2-carboxamido]phenol]
GI50 [1]: 1.53 µM
TGI [1]: 5.55E−06 Molar
GI50 [2]: 1.65 µM
TGI [2]: 3.79E−06 Molar
Percent Growth ([2]; Log10 Concentration −4.0): −55%
Percent Growth ([2]; Log10 Concentration −5.0): −58%
Percent Growth ([2]; Log10 Concentration −6.0): 80%
Percent Growth ([2]; Log10 Concentration −7.0): 97%
Percent Growth ([2]; Log10 Concentration −8.0): 93%
GI50 [3]: 2.83 µM
Percent Growth [3]: 93%
TGI [3]: 9.60E−06 Molar
GI50 [4]: 2.43 µM
TGI [4]: 7.10E−06 Molar
Percent Growth ([4]; Log10 Concentration −4.0): −65%
Percent Growth ([4]; Log10 Concentration −5.0): −16%
Percent Growth ([4]; Log10 Concentration −6.0): 92%
Percent Growth ([4]; Log10 Concentration −7.0): 97%
Percent Growth ([4]; Log10 Concentration −8.0): 94%
GI50 [5]: 0.852 µM
TGI [5]: 8.12E−06 Molar
Percent Growth ([5]; Log10 Concentration −4.0): −7%
Percent Growth [6]: −75%
GI50 ([6]; M14): 1.49 µM
TGI ([6]; M14): 3.19E−06 Molar
Percent Growth ([6]; M14, Log10 Concentration −4.0): −99%
Percent Growth ([6]; M14, Log10 Concentration −6.0): 76%
Percent Growth ([6]; M14, Log10 Concentration −7.0): 91%
Percent Growth ([6]; M14, Log10 Concentration −8.0): 93%
GI50 [7]: 1.14 µM
Percent Growth ([7]; Log10 Concentration −4.0): 4%
Percent Growth [8]: 77%
GI50 ([8]; U251): 2.41 µM
TGI ([8]; U251): 1.23E−05 Molar
Percent Growth ([8]; U251, Log10 Concentration −4.0): −71%
Percent Growth ([8]; U251, Log10 Concentration −5.0): 7%
Percent Growth ([8]; U251, Log10 Concentration −7.0): 101%
GI50 [9]: 1.26 µM
TGI [9]: 5.28E−06 Molar
Percent Growth ([9]; Log10 Concentration −4.0): −13%
GI50 [10]: 2.29 µM
TGI [10]: 1.15E−05 Molar
Percent Growth ([10]; Log10 Concentration −4.0): −51%
Percent Growth ([10]; Log10 Concentration −8.0): 96%
GI50 [11]: 3.53 µM
TGI [11]: 1.38E−05 Molar
Percent Growth ([11]; Log10 Concentration −4.0): −75%
Percent Growth [12]: 65% and 56% and 93%
GI50 ([12]; SNB-75): 18.6 µM
TGI ([12]; SNB-75): 3.32E−05 Molar
Percent Growth ([12]; SNB-75, Log10 Concentration −4.0): −96%
Percent Growth [13]: 106%
GI50 ([13]; LOX IMVI): 2.43 µM
TGI ([13]; LOX IMVI): 6.93E−06 Molar
Percent Growth ([13]; LOX IMVI, Log10 Concentration −4.0): −70%
Percent Growth ([13]; LOX IMVI, Log10 Concentration −5.0): −17%
Percent Growth ([13]; LOX IMVI, Log10 Concentration −6.0): 92%
Percent Growth ([13]; LOX IMVI, Log10 Concentration −7.0): 101%
GI50 [14]: 1.32 µM
TGI [14]: 2.67E−06 Molar
Percent Growth ([14]; Log10 Concentration −4.0): −91%
Percent Growth ([14]; Log10 Concentration −7.0): 101%
GI50 [15]: 1.88 µM
TGI [15]: 3.40E−06 Molar
Percent Growth ([15]; Log10 Concentration −4.0): −97%
Percent Growth ([15]; Log10 Concentration −7.0): 104%
Percent Growth ([15]; Log10 Concentration −8.0): 102%
Percent Growth [16]: 123%
GI50 ([16]; UO-31): 3 µM
TGI ([16]; UO-31): 6.38E−06 Molar
Percent Growth ([16]; UO-31, Log10 Concentration −4.0): −97%
Percent Growth ([16]; UO-31, Log10 Concentration −5.0): −30%
Percent Growth ([16]; UO-31, Log10 Concentration −7.0): 102%
Percent Growth ([16]; UO-31, Log10 Concentration −8.0): 105%
Percent Growth [17]: 110%
GI50 ([17]; BT-549): 3.6 µM
TGI ([17]; BT-549): 2.05E−05 Molar
Percent Growth ([17]; BT-549, Log10 Concentration −4.0): −20%
Percent Growth ([17]; BT-549, Log10 Concentration −5.0): 9%
Percent Growth ([17]; BT-549, Log10 Concentration −6.0): 101%
Percent Growth ([17]; BT-549, Log10 Concentration −7.0): 103%
GI50 [18]: 1.76 µM
TGI [18]: 3.56E−06 Molar
Percent Growth ([18]; Log10 Concentration −4.0): −97%
Percent Growth ([18]; Log10 Concentration −7.0): 97%
Percent Growth ([18]; Log10 Concentration −8.0): 96%
Percent Growth [19]: 89% and 77%
GI50 ([19]; HS 578T): 11.8 µM
TGI ([19]; HS 578T): 3.96E−05 Molar
Percent Growth ([19]; HS 578T, Log10 Concentration −4.0): −38%
Percent Growth ([19]; HS 578T, Log10 Concentration −5.0): 57%
Percent Growth ([19]; HS 578T, Log10 Concentration −7.0): 92%
GI50 [20]: 2.13 µM
TGI [20]: 4.69E−06 Molar
Percent Growth ([20]; Log10 Concentration −4.0): −99%
Percent Growth ([20]; Log10 Concentration −7.0): 102%
Percent Growth ([20]; Log10 Concentration −8.0): 94%
Percent Growth [21]: −61%
GI50 ([21]; OVCAR-8): 1.32 µM
TGI ([21]; OVCAR-8): 3.28E−06 Molar
Percent Growth ([21]; OVCAR-8, Log10 Concentration −4.0): −63%
Percent Growth ([21]; OVCAR-8, Log10 Concentration −6.0): 65%
Percent Growth ([21]; OVCAR-8, Log10 Concentration −7.0): 94%
Percent Growth ([21]; OVCAR-8, Log10 Concentration −8.0): 94%
GI50 [22]: 1.67 µM
TGI [22]: 3.38E−06 Molar
Percent Growth ([22]; Log10 Concentration −4.0): −61%
